Source: publication PMC4317577, “Synthetic Covalently Linked Dimeric Form of H2 Relaxin Retains Native RXFP1 Activity and Has Improved In Vitro Serum Stability” (BioMed Research International, 2015)

Legend:
human RXFP2 = target: T1, human RXFP2 (Homo sapiens, UniProt Q8WXD0); experiment: cAMP reporter gene (pCRE β-galactosidase) assay in RXFP2 expressing HEK-293T cells; type: cell-based; conditions: HEK-293T cells expressing RXFP2, pCRE β-galactosidase reporter, 6 h at 37°C; at least three independent experiments in triplicate
T1 construct: expressed in transfected cells; host or cells: HEK-293T
Experimental: The influence of cAMP signaling by synthetic analogues in HEK-293T cells expressing either human RXFP1 or RXFP2 receptors was assessed using cAMP reporter gene assay as described previously. Briefly, HEK-293T cotransfected with response element pCRE β-galactosidase reporter plasmid were plated out in Corning Cell BIND 96-well plate at 50 000 cells per well per 200 μL. 24 h later, cotransfected cells were treated with increasing concentrations of H2 relaxin analogues in parallel with native H2 relaxin or human INSL3. After 6 h incubation at 37°C, cell media were aspirated and cells were frozen at −80°C overnight. A β-galactosidase colorimetric assay measuring absorbance at 570 nm on Benchmark Plus microplate spectrophotometer (Bio-Rad, Gladesville, Australia) was then used to measure relative cAMP responses. Each concentration point was measured in triplicate and each experiment performed independently at least three times. Ligand-induced stimulation of cAMP was expressed as a percentage of the maximum H2 relaxin response for RXFP1 cells or human INSL3 for RXFP2 cells. GraphPad Prism 5 was used to analyze the cAMP activity assay which was expressed as the mean ± S.E.M. Statistical analysis was conducted using one-way ANOVA with Newman-Keuls post hoc analysis.

In vitro serum stability = type: in vitro ADME; conditions: 100% human serum; 100% male human serum, not heat inactivated, 37°C; 10.0 μL of 1.0 mg/mL peptide in 590 μL serum; samples 0-6 h, acetonitrile/0.1% TFA quench, RP-HPLC (C4) peak area; triplicate
Experimental: The stability of the synthetic analogue was measured against native H2 relaxin in human serum. The purchased serum was not heat inactivated in order to retain as much of its proteolytic enzymic activity as possible. The peptides tested were normalized to a final concentration of 1.0 mg/mL with deionized water, and 10.0 μL of peptides was added to 590 μL 100% human serum. After addition of peptide into the serum, 50 μL of samples was removed and quenched with 250 μL of ice-cold acetonitrile/0.1% TFA. The solution was then spun down with a benchtop centrifuge at 13,500 rpm (Eppendorf Centrifuge 5804R, Melbourne, Australia) for 15 mins at 4°C to pellet the larger, precipitated serum proteins. The remaining peptide/serum solution was placed immediately into 37°C incubator. Degradation of peptides was monitored with manual RP-HPLC injections of supernatant using a Phenomenex Aeris Widepore 3.6 μm C4 analytical column (pore size, 100 Å; particle size 4.6 × 250 mm), in a stabilized gradient mode with eluent A: 0.1% aq TFA and eluant B: 0.1% TFA in acetonitrile. Samples were taken at time points 0.5, 1.0, 1.5, 2.0, 2.5, 3, 4, 5, and 6 h. […] Nonspecific peptide degradation was measured by peptide degradation in serum at 0 h. […] GraphPad Prism 5 was used to analyze the peptide degradation in serum which was expressed as the mean ratio ± S.E.M. and Microsoft Excel was used to graph all data. […]

[1] = cited from earlier work
Experimental: Nearly 9 decades since its discovery, the pleotropic peptide H2 relaxin recently completed a successful Phase III clinical trial for the treatment of acute heart failure. Despite this important success, the short in vivo half-life of the peptide (10 mins) necessitates its continuous intravenous infusion for optimum activity. As the in vivo half-life of a peptide or protein is affected by both its degradation by enzymes and renal clearance, it can be improved by, for example, conjugation with large MW compounds such as PEG or by polymerization/aggregation ...

T1 sequence (Q8WXD0 whole entry): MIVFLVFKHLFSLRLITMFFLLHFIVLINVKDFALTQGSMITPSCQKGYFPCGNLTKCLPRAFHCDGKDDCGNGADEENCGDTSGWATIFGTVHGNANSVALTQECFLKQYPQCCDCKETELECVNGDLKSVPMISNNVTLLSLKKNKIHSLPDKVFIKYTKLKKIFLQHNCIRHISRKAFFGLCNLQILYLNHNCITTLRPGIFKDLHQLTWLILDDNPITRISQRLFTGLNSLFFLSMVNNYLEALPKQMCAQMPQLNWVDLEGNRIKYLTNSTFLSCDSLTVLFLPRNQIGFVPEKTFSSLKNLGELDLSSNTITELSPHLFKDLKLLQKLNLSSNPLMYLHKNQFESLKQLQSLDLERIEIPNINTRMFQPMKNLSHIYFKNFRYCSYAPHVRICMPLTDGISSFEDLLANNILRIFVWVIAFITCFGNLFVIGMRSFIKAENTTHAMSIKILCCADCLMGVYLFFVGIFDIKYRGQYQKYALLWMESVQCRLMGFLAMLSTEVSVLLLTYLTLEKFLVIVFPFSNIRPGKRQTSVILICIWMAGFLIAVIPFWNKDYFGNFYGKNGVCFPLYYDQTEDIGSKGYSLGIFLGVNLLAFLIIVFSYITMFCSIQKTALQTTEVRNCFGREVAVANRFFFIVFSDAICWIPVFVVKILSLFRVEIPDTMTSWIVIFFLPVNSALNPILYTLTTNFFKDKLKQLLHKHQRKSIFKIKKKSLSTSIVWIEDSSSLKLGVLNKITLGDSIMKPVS

Row | Molecule | cAMP activation at RXFP2 compared with H2 relaxin (human RXFP2) | half-life at 16.7 µg/mL (In vitro serum stability) | activity in vivo relative to monomer [1] | plasma half-life in rabbits [1]
1 | CC[C@H](C)[C@@H]1NC(=O)[C@H](C)NC(=O)[C@H](CC(C)C)NC(=O)[C@H](CCC(N)=O)NC(=O)[C@H](C)NC(=O)[C@H](CCCNC(=N)N)NC(=O)[C@H](C(C)C)NC(=O)[C@H](CC(C)C)NC(=O)[C@H](CCC(=O)O)NC(=O)[C@H](CCCNC(=N)N)NC(=O)CNC(=O)[C@@H](NC(=O)[C@H](CC(C)C)NC(=O)[C@H](CCCCN)NC(=O)[C@@H](NC(=O)[C@@H](NC(=O)[C@H](CCC(=O)O)NC(=O)[C@H](CCC(=O)O)NC(=O)[C@H](CCSC)NC(=O)[C@H](Cc2c[nH]c3ccccc23)NC(=O)[C@H](CO)NC(=O)[C@H](CC(=O)O)NC(=O)[C@@H](N)Cc2cn(CCOCCOCCOCCOCCOCCOCCOCCn3cc(C[C@H](N)C(=O)N[C@@H](CC(=O)O)C(=O)N[C@@H](CO)C(=O)N[C@@H](Cc4c[nH]c5ccccc45)C(=O)N[C@@H](CCSC)C(=O)N[C@@H](CCC(=O)O)C(=O)N[C@@H](CCC(=O)O)C(=O)N[C@H](C(=O)N[C@H](C(=O)N[C@@H](CCCCN)C(=O)N[C@@H](CC(C)C)C(=O)N[C@H]4CSSC[C@@H]5NC(=O)[C@@H](NC(=O)[C@H](CCCCN)NC(=O)[C@H](CC(N)=O)NC(=O)[C@H](C)NC(=O)[C@H](CC(C)C)NC(=O)[C@H](C)NC(=O)[C@H](CO)NC(=O)[C@H](Cc6ccc(O)cc6)NC(=O)[C@H](CC(C)C)NC(=O)[C@@H]6CCC(=O)N6)CSSC[C@H](NC(=O)CNC(=O)[C@H](C(C)C)NC(=O)[C@H](Cc6c[nH]cn6)NC5=O)C(=O)N[C@@H]([C@@H](C)O)C(=O)N[C@@H](CCCCN)C(=O)N[C@@H](CCCNC(=N)N)C(=O)N[C@@H](CO)C(=O)N[C@@H](CC(C)C)C(=O)N[C@@H](C)C(=O)N[C@@H](CCCNC(=N)N)C(=O)N[C@@H](Cc5ccccc5)C(=O)N[C@H](C(N)=O)CSSC[C@@H](C(=O)NCC(=O)N[C@@H](CCSC)C(=O)N[C@@H](CO)C(=O)N[C@H](C(=O)N[C@@H](Cc5c[nH]c6ccccc56)C(=O)N[C@@H](CO)C(N)=O)[C@@H](C)O)NC(=O)[C@H]([C@@H](C)CC)NC(=O)[C@H](C)NC(=O)[C@H](CC(C)C)NC(=O)[C@H](CCC(N)=O)NC(=O)[C@H](C)NC(=O)[C@H](CCCNC(=N)N)NC(=O)[C@H](C(C)C)NC(=O)[C@H](CC(C)C)NC(=O)[C@H](CCC(=O)O)NC(=O)[C@H](CCCNC(=N)N)NC(=O)CNC4=O)[C@@H](C)CC)C(C)C)nn3)nn2)C(C)C)[C@@H](C)CC)CSSC[C@@H]2NC(=O)[C@@H](NC(=O)[C@H](CCCCN)NC(=O)[C@H](CC(N)=O)NC(=O)[C@H](C)NC(=O)[C@H](CC(C)C)NC(=O)[C@H](C)NC(=O)[C@H](CO)NC(=O)[C@H](Cc3ccc(O)cc3)NC(=O)[C@H](CC(C)C)NC(=O)[C@@H]3CCC(=O)N3)CSSC[C@H](NC(=O)CNC(=O)[C@H](C(C)C)NC(=O)[C@H](Cc3c[nH]cn3)NC2=O)C(=O)N[C@@H]([C@@H](C)O)C(=O)N[C@@H](CCCCN)C(=O)N[C@@H](CCCNC(=N)N)C(=O)N[C@@H](CO)C(=O)N[C@@H](CC(C)C)C(=O)N[C@@H](C)C(=O)N[C@@H](CCCNC(=N)N)C(=O)N[C@@H](Cc2ccccc2)C(=O)N[C@H](C(N)=O)CSSC[C@@H](C(=O)NCC(=O)N[C@@H](CCSC)C(=O)N[C@@H](CO)C(=O)N[C@H](C(=O)N[C@@H](Cc2c[nH]c3ccccc23)C(=O)N[C@@H](CO)C(N)=O)[C@@H](C)O)NC1=O [H2 (PEG)7 H2 dimer] | significantly weaker activation propensity | 2.52 h |  | 
2 | dimeric erythropoietin: dimeric erythropoietin formed by chemical crosslinking of the monomer |  |  | 26 fold | more than 24 h
3 | erythropoietin monomer: erythropoietin monomer |  |  |  | 4 h
